Here are results for twelve compounds from patent EP0611660A2, “Condensed 5-membered heterocycles, process for their preparation and medicines containing these compounds” (Dr. Karl Thomae GmbH, priority 1993, dated 1994).

Counter-ions that a name gives are not always drawn.

In this assay the test system is Thrombozytenaggregation. The experiment in a line: Antithrombotic effect: collagen-induced platelet aggregation (Born and Cross) in platelet-rich plasma. Conditions: human platelet-rich plasma, 10 min preincubation at 37 °C, 50% change of optical density, read-out: Hemmung der Plättchenaggregation EC50. Format: cell-based. The source says: 2. Antithrombotische Wirkung: Methodik Die Thrombozytenaggregation wird nach der Methode von Born und Cross (J. Physiol. 170, 397 (1964)) in plättchenreichem Plasma gesunder Versuchspersonen gemessen. Zur Gerinnungshemmung wird das Blut mit Natriumcitrat 3,14 % im Volumenverhältnis 1:10 versetzt. Collagen-induzierte Aggregation Der […] Substanz photometrisch gemessen und registriert. Aus dem Neigungswinkel der Dichtekurve wird auf die Aggregationsgeschwindigkeit geschlossen. Der Punkt der Kurve, bei dem die größte Lichtdurchlässigkeit vorliegt, dient zur Berechnung der "optical density". Die Collagen-Menge wird möglichst gering gewählt, aber doch so, daß sich eine irreversibel verlaufende Reaktionskurve ergibt. Verwendet wird das handelsübliche Collagen der Firma Hormonchemie, München. Vor der Collagen-Zugabe wird das Plasma jeweils 10 Minuten mit der Substanz bei 37 ° C inkubiert. Aus den erhaltenen Meßzahlen wird graphisch eine EC50 bestimmt, die sich auf eine 50%ige Änderung der "optical density" […].
In the case of `Cn1c(C(=O)NC2CCNCC2)nc2cc(C(=O)NCCC(=O)O)ccc21` [1(1), 5-[(2-Carboxy-ethyl)-aminocarbonyl]-1-methyl-2-[(4-piperidinyl)-aminocarbonyl]-benzimidazol-dihydro-bromid], the IC50 was more than 10 µM.
Take `Cn1c(CCC2CCNCC2)nc2cc(C(=O)CCCC(=O)O)ccc21` [1(15), 5-(4-Carboxy-1-oxo-butyl)-1-methyl-2-[2-(4-piperidinyl)-ethyl]-benzimidazol-dihydrobromid]: the IC50 was determined as 1.25 µM.
The result for `Cn1c(=O)n(CCCCC(=O)O)c(=O)c2[nH]c(CCC3CCNCC3)nc21` [1(48), 1-(4-Carboxy-butyl)-3-methyl-8-[2-(4-piperidinyl)ethyl]-xanthin-dihydrochlorid] reads 0.25 µM; that for `Cn1c(CCC2CCNCC2)nc2c(=O)n(CCCCC(=O)O)c(=O)n(C)c21` [1(49), 1-(4-Carboxy-butyl)-3,9-dimethyl-8-[2-(4-piperidinyl)-ethyl]-xanthin-dihydrobromid], 0.15 µM; that for `N=C(N)c1ccc(-c2nc3c(=O)n(CCCCC(=O)O)c(=O)n4c3n2CCC4)cc1` [1(61), 2-(4-Amidino-phenyl)-9-(4-carboxy-butyl)-8,10-dioxo-5,6-dihydro-4H,9H-pyrimido[1,2,3-cd]purin-dih-ydrobromid], 0.11 µM.
`O=C(O)CCCCn1c(=O)c2nc(CCC3CCNCC3)n3c2n(c1=O)CCC3` [1(63), 9-(4-Carboxy-butyl)-2-[2-(4-piperidinyl)-ethyl]-8,10-dioxo-5,6-dihydro-4H,9H-pyrimido[1,2,3-cd]purin-dihydrobromid]: the IC50 is 4.4 µM.
With `Cn1c(=O)n(CCCCC(=O)O)c(=O)c2[nH]c([C@H]3CC[C@H](CN)CC3)nc21` [1(64), 8-(trans-4-Aminomethyl-cyclohexyl)-1-(4-carboxy-butyl)-3-methyl-xanthin-dihydrochlorid] the figure was 30 µM.
In the case of `Cn1c(-c2ccc(C3CCNCC3)cc2)nc2cc(C=CC(=O)O)ccc21` [1(67), 5-(2-Carboxy-ethenyl)-1-methyl-2-[4-(4-piperidinyl)-phenyl]-benzimidazol-dihydrobromid], the IC50 turned out to be 2.3 µM.
With `Cn1c(CCC2CCNCC2)nc2c1c(=O)n(CCCCC(=O)O)c(=O)n2C` [6(12), 1-(4-Carboxy-butyl)-3,7-dimethyl-8-[2-(4-piperidinyl)-ethyl]-xanthin] the figure was 6.4 µM.
With `COC(=O)CCCCn1c(=O)c2nc(-c3ccc(C(=N)N)cc3)n3c2n(c1=O)CCC3` [7(12), 2-(4-Amidino-phenyl)-9-(4-methoxycarbonyl-butyl)-8,10-dioxo-5,6-dihydro-4H,9H-pyrimido[1,2,3-cd]-purin], the IC50 is 0.66 µM.
Take `Cn1c(CCC2CCNCC2)nc2cc(C(=O)NCCC(=O)O)ccc21` [Beispiel 1, 5-[(2-Carboxy-ethyl)-aminocarbonyl]-1-methyl-2-[2-(4-piperidinyl)-ethyl]-benzimidazol-dihydrobromid]: the IC50 came out at 0.43 µM.
The result for `COC(=O)CCNC(=O)c1ccc2c(c1)nc(CCC1CCNCC1)n2C` [Beispiel 2, 5-[(2-Methoxycarbonyl-ethyl)-aminocarbonyl]-1-methyl-2-[2-(4-piperidinyl)-ethyl]-benzimidazol] reads 2 µM.
